Data from patent publication US8586556B2, “Methods, compositions and drug delivery systems for intraocular delivery of siRNA molecules” (Allergan, Inc., priority 2006, dated 2013).

Test system: neovascularization
Assay: Placement of the drug delivery systems into the vitreous of an eye: duration of therapeutic benefit
Format: in vivo
Details: drug delivery system placed into the vitreous of an eye
From the text: (§1) Drug delivery systems which comprise about 86.1 milligrams of Cand5 can be produced similar to those systems described in Examples 1. Such drug delivery systems release Cand5 at a rate from about 49.7 micrograms per day to about 4970 micrograms per day. The release rates can be measured using in vitro and/or in vivo assays as described above. […] Improvements in patient function, such as vision and intraocular pressure, can be observed at longer time periods.
as §1, with “siRNA Z” for “Cand5”, “1, above.” for “1.”

For “Cand5: siRNA from Acuity Pharmaceuticals/Avecia that silences genes producing VEGF; sense SEQ ID NO: 3, antisense SEQ ID NO: 4 (sense ACCUCACCAAGGCCAGCAC; antisense GUGCUGGCCUUGGUGAGGU; listed as RNA, chemistry not fully specified; listed as Homo Sapiens)”, the “duration of therapeutic benefits, such as the treatment of neovascularization, after a single administration” value was “at least about thirty days”.
